# Source: patent US20260166128A1, “HUMAN AMYLIN ANALOG, AND DERIVATIVE THEREOF AND USE THEREOF” (priority 2022, published 2026)
# Numbered stars: 1 amine (or outer) side, 2 acyl side, 3 side chain; on linkers, the order of the positions; unused ones are H or OH. Bridge positions count the residues as written; N and C are the ends. Square brackets hold non-standard residues; d marks the D form. Side chains are listed from the residue outwards. Peptide text beside a SMILES is read from it. * marks the point of attachment. C20 diacid = O=C(O)CCCCCCCCCCCCCCCCCCC(=O)*; γGlu = O=C(O)[C@H](CCC(=O)[*:2])N[*:1]; Hyp = O=C(O)[C@@H]1C[C@@H](O)CN1; AEEA = NCCOCCOCC(=O)O
# Target: T1, human amylin receptor (Homo sapiens, UniProt O60896+P30988)
# T1 construct: host or cells: CHO-K1/Ga15/AMY3 cells, further stably transfected with a CRE-luciferase plasmid
# T1 sequence (P30988 25-474): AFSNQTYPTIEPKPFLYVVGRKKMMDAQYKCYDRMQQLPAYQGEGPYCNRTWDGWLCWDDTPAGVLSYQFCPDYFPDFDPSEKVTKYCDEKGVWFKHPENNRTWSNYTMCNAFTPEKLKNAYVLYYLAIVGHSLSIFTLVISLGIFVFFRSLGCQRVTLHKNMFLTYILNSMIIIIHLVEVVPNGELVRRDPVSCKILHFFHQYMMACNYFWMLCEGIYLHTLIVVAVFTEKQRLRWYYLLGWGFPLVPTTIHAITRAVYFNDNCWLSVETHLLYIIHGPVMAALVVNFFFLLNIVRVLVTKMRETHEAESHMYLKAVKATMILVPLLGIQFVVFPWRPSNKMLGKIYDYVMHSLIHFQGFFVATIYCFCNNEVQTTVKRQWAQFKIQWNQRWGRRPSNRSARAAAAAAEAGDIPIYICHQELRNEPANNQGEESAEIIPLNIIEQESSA
# T1 sequence (O60896 24-148 partner): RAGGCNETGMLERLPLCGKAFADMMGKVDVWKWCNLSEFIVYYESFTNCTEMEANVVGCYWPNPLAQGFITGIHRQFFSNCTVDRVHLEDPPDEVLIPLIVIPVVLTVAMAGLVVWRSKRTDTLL
# Test: Luciferase assay of amylin derivatives in amylin receptor/CRE-luc CHO cell line
# Format: cell-based
# Conditions: CHO-K1/Ga15/AMY3 CRE-luc cells, 24 hours incubation, F12 medium containing 10% FBS; read-out: EC50
# Description: The experiment was intended to detect the activity or efficacy of the amylin derivatives on a human amylin receptor in vitro by luciferase assay.
# 50 μL of growth medium (F12 medium containing 10% FBS) was added into each well of a white 96-well plate, and the stably transfected amylin/CRE-lue CHO cells were inoculated into the white 96-well plate at a density of about 20,000 cells/well for activity determination.
row,SMILES,EC50
1,CC[C@H](C)[C@H](NC(=O)[C@@H]1CCCN1C(=O)[C@H](CCCCNC(=O)COCCOCCNC(=O)COCCOCCNC(=O)CC[C@H](NC(=O)CCCCCCCCCCCCCCCCCCC(=O)O)C(=O)O)NC(=O)[C@H](CC(C)C)NC(=O)[C@H](CC(N)=O)NC(=O)[C@H](CC(N)=O)NC(=O)[C@H](CO)NC(=O)[C@H](CO)NC(=O)[C@H](Cc1c[nH]cn1)NC(=O)[C@H](CCCNC(=N)N)NC(=O)[C@H](CC(C)C)NC(=O)[C@H](Cc1ccccc1)NC(=O)[C@H](CC(=O)O)NC(=O)[C@H](C)NC(=O)[C@H](CC(C)C)NC(=O)[C@H](CCCNC(=N)N)NC(=O)[C@H](CCC(N)=O)NC(=O)[C@@H](NC(=O)[C@H](C)NC(=O)[C@@H]1CSSC[C@H](NC(=O)[C@@H](N)CCCNC(=N)N)C(=O)N[C@@H](CC(N)=O)C(=O)N[C@@H]([C@@H](C)O)C(=O)N[C@@H](C)C(=O)N[C@@H]([C@@H](C)O)C(=O)N1)[C@@H](C)O)C(=O)N[C@@H](CC(C)C)C(=O)N1CCC[C@H]1C(=O)N1CCC[C@H]1C(=O)N[C@H](C(=O)N[C@@H](CC(N)=O)C(=O)N[C@H](C(=O)NCC(=O)N[C@@H](CO)C(=O)N[C@@H](CC(N)=O)C(=O)N[C@H](C(=O)N1C[C@H](O)C[C@H]1C(N)=O)[C@@H](C)O)C(C)C)[C@@H](C)O [PD081] (H-RCNTATCATQRLADFLRHSSNNLK([AEEA-AEEA-γGlu-C20 diacid])PILPPTNVGSNT[Hyp]-NH2; disulfide 2-7),0.031 nM
2,CC[C@H](C)[C@H](NC(=O)[C@@H]1CCCN1C(=O)[C@H](CCCCN)NC(=O)[C@H](CC(C)C)NC(=O)[C@H](CC(N)=O)NC(=O)[C@H](CC(N)=O)NC(=O)[C@H](CO)NC(=O)[C@H](CO)NC(=O)[C@H](Cc1c[nH]cn1)NC(=O)[C@H](CCCNC(=N)N)NC(=O)[C@H](CC(C)C)NC(=O)[C@H](Cc1ccccc1)NC(=O)[C@H](CC(=O)O)NC(=O)[C@H](C)NC(=O)[C@H](CC(C)C)NC(=O)[C@H](CCCNC(=N)N)NC(=O)[C@H](CCC(N)=O)NC(=O)[C@@H](NC(=O)[C@H](C)NC(=O)[C@@H]1CSSC[C@H](NC(=O)[C@@H](N)CCCCNC(=O)CC[C@H](NC(=O)CCCCCCCCCCCCCCCCCCC(=O)O)C(=O)O)C(=O)N[C@@H](CC(N)=O)C(=O)N[C@@H]([C@@H](C)O)C(=O)N[C@@H](C)C(=O)N[C@@H]([C@@H](C)O)C(=O)N1)[C@@H](C)O)C(=O)N[C@@H](CC(C)C)C(=O)N1CCC[C@H]1C(=O)N1CCC[C@H]1C(=O)N[C@H](C(=O)N[C@@H](CC(N)=O)C(=O)N[C@H](C(=O)NCC(=O)N[C@@H](CO)C(=O)N[C@@H](CC(N)=O)C(=O)N[C@H](C(=O)N1C[C@H](O)C[C@H]1C(N)=O)[C@@H](C)O)C(C)C)[C@@H](C)O [PD072] (H-K([γGlu-C20 diacid])CNTATCATQRLADFLRHSSNNLKPILPPTNVGSNT[Hyp]-NH2; disulfide 2-7),0.027 nM
3,CC[C@H](C)[C@H](NC(=O)[C@@H]1CCCN1C(=O)CNC(=O)[C@H](CC(C)C)NC(=O)[C@H](CC(N)=O)NC(=O)[C@H](CC(N)=O)NC(=O)[C@H](CO)NC(=O)[C@H](CCCCNC(=O)COCCOCCNC(=O)COCCOCCNC(=O)CC[C@H](NC(=O)CCCCCCCCCCCCCCCCCCC(=O)O)C(=O)O)NC(=O)[C@H](Cc1c[nH]cn1)NC(=O)[C@H](CCCNC(=N)N)NC(=O)[C@H](CC(C)C)NC(=O)[C@H](Cc1ccccc1)NC(=O)[C@H](CC(=O)O)NC(=O)[C@H](C)NC(=O)[C@H](CC(C)C)NC(=O)[C@H](CCCNC(=N)N)NC(=O)[C@H](CCC(N)=O)NC(=O)[C@@H](NC(=O)[C@H](C)NC(=O)[C@@H]1CSSC[C@H](NC(=O)[C@@H](N)CCCNC(=N)N)C(=O)N[C@@H](CC(N)=O)C(=O)N[C@@H]([C@@H](C)O)C(=O)N[C@@H](C)C(=O)N[C@@H]([C@@H](C)O)C(=O)N1)[C@@H](C)O)C(=O)N[C@@H](CC(C)C)C(=O)N1CCC[C@H]1C(=O)N1CCC[C@H]1C(=O)N[C@H](C(=O)N[C@@H](CC(N)=O)C(=O)N[C@H](C(=O)NCC(=O)N[C@@H](CO)C(=O)N[C@@H](CC(N)=O)C(=O)N[C@H](C(=O)N1C[C@H](O)C[C@H]1C(N)=O)[C@@H](C)O)C(C)C)[C@@H](C)O [PD099] (H-RCNTATCATQRLADFLRHK([AEEA-AEEA-γGlu-C20 diacid])SNNLGPILPPTNVGSNT[Hyp]-NH2; disulfide 2-7),0.033 nM
4,CC[C@H](C)[C@H](NC(=O)[C@@H]1CCCN1C(=O)[C@H](CCCNC(=N)N)NC(=O)[C@H](CC(C)C)NC(=O)[C@H](CC(N)=O)NC(=O)[C@H](CC(N)=O)NC(=O)[C@H](CO)NC(=O)[C@H](CO)NC(=O)[C@H](Cc1c[nH]cn1)NC(=O)[C@H](CCCNC(=N)N)NC(=O)[C@H](CC(C)C)NC(=O)[C@H](Cc1ccccc1)NC(=O)[C@H](CC(=O)O)NC(=O)[C@H](C)NC(=O)[C@H](CC(C)C)NC(=O)[C@H](CCCNC(=N)N)NC(=O)[C@H](CCC(N)=O)NC(=O)[C@@H](NC(=O)[C@H](C)NC(=O)[C@@H]1CSSC[C@H](NC(=O)[C@H](CCCNC(=N)N)NC(=O)CC[C@H](NC(=O)CCCCCCCCCCCCCCCCCCC(=O)O)C(=O)O)C(=O)N[C@@H](CC(N)=O)C(=O)N[C@@H]([C@@H](C)O)C(=O)N[C@@H](C)C(=O)N[C@@H]([C@@H](C)O)C(=O)N1)[C@@H](C)O)C(=O)N[C@@H](CC(C)C)C(=O)N1CCC[C@H]1C(=O)N1CCC[C@H]1C(=O)N[C@H](C(=O)N[C@@H](CC(N)=O)C(=O)N[C@H](C(=O)NCC(=O)N[C@@H](CO)C(=O)N[C@@H](CC(N)=O)C(=O)N[C@H](C(=O)N1CCC[C@H]1C(N)=O)[C@@H](C)O)C(C)C)[C@@H](C)O [PD197] ({C20 diacid-γGlu}-RCNTATCATQRLADFLRHSSNNLRPILPPTNVGSNTP-NH2; disulfide 2-7 (inferred)),0.025 nM
5,CC[C@H](C)[C@H](NC(=O)[C@@H]1CCCN1C(=O)[C@H](CCCCNC(=O)COCCOCCNC(=O)CC[C@H](NC(=O)CCCCCCCCCCCCCCCCCCC(=O)O)C(=O)O)NC(=O)[C@H](CC(C)C)NC(=O)[C@H](CC(N)=O)NC(=O)[C@H](CC(N)=O)NC(=O)[C@H](CO)NC(=O)[C@H](CO)NC(=O)[C@H](Cc1c[nH]cn1)NC(=O)[C@H](CCCNC(=N)N)NC(=O)[C@H](CC(C)C)NC(=O)[C@H](Cc1ccccc1)NC(=O)[C@H](CC(=O)O)NC(=O)[C@H](C)NC(=O)[C@H](CC(C)C)NC(=O)[C@H](CCCNC(=N)N)NC(=O)[C@H](CCC(N)=O)NC(=O)[C@@H](NC(=O)[C@H](C)NC(=O)[C@@H]1CSSC[C@H](NC(=O)[C@@H](N)CCCNC(=N)N)C(=O)N[C@@H](CC(N)=O)C(=O)N[C@@H]([C@@H](C)O)C(=O)N[C@@H](C)C(=O)N[C@@H]([C@@H](C)O)C(=O)N1)[C@@H](C)O)C(=O)N[C@@H](CC(C)C)C(=O)N1CCC[C@H]1C(=O)N1CCC[C@H]1C(=O)N[C@H](C(=O)N[C@@H](CC(N)=O)C(=O)N[C@H](C(=O)NCC(=O)N[C@@H](CO)C(=O)N[C@@H](CC(N)=O)C(=O)N[C@H](C(=O)N1C[C@H](O)C[C@H]1C(N)=O)[C@@H](C)O)C(C)C)[C@@H](C)O [PD106] (H-RCNTATCATQRLADFLRHSSNNLK([AEEA-γGlu-C20 diacid])PILPPTNVGSNT[Hyp]-NH2; disulfide 2-7),0.026 nM
